Assay results published in patent publication US9624549B2, “Stable gene targets in breast cancer and use thereof for optimizing therapy” (Cytognomix Inc., priority 2012, dated 2017).
Where “and” joins values, the source holds several entries; their conditions need not be identical. Equal entries are not always repeated. Where two headings read alike, the source gives them in different places.

How the values were obtained:
[1] = test system: T47D; details: T47D cell line; replicate assays; cited from earlier work
[2] = test system: MDAMB231; details: MDA231 (MDAMB231) cell line; replicate assays; cited from earlier work
[3] = test system: HS578T; details: HS578T cell line; replicate assays; cited from earlier work
[4] = test system: BT549; details: BT549 cell line; replicate assays; cited from earlier work
[5] = test system: MCF7; details: MCF7 cell line; replicate assays; cited from earlier work
[6] = test system: HS578T; assay: GI50 of breast cancer cell lines from NCI60 panel; assay type: cell-based; details: Homo sapiens, Hs-578T, mean of replicate GI50s, read-out: mean concentration (GI50) (converted)
Description: Certain anti-breast cancer therapies have been evaluated in the NCl-60 panel of cancer cell lines (Staunton J E, Slonim D K, Coller H A, Tamayo P, Angelo M J, Park J, Scherf U, Lee J K, Reinhold W O, Weinstein J N and others. 2001. Chemosensitivity prediction by transcriptional profiling. Proc Natl Acad Sci USA 98:10787-92.) including four cell lines we studied (MCF7, MDA-MB-231, HS578T, and T-47D). We have confirmed stable copy numbers for a representative group of target genomic intervals in 5 breast cancer lines (MCF7, MDAMB231, HS578T, T47D and SKBR-3). Despite the lack of stratification in pathology in the tumors studied, genomic architectures and functions were preserved in these regions. Paclitaxel and its derivatives, estrone, estradiol, and topotecan are common therapies that act on multiple products encoded by dually stable genes which may, in part, explain why they are effective for inhibiting growth of these cell lines and for treating breast cancer.

[7] = test system: triple-negative breast cancer cell lines; details: triple-negative breast cancer cell lines (Liu et al. 2009); cited from earlier work

Compound | GI50 [1] | GI50 [2] | GI50 [3] | GI50 [4] | GI50 [5] | GI50 [6] | anti-cancer activity [7]
Nc1ccn([C@@H]2O[C@H](CO)[C@@H](O)C2(F)F)c(=O)n1 [Gm, gemcitabane] | 6.26 −log10M and 8.00 −log10M and 5.86 −log10M | 5.86 −log10M and 6.28 −log10M and 6.03 −log10M | 5.65 −log10M and 4.00 −log10M | 7.80 −log10M and 8.00 −log10M | 7.99 −log10M and 8.00 −log10M | – | –
S=c1nc[nH]c2nc[nH]c12 [Me, mercaptopurine] | 5.45 −log10M and 5.62 −log10M | 4.61 −log10M and 5.14 −log10M | 4.85 −log10M and 4.84 −log10M | 4.52 −log10M and 3.74 −log10M and 4.00 −log10M | 5.78 −log10M and 5.74 −log10M and 5.82 −log10M | – | –
CC(=O)O[C@H]1C(=O)[C@@]2(C)[C@H]([C@H](OC(=O)c3ccccc3)[C@]3(O)C[C@H](OC(=O)[C@H](O)[C@@H](NC(=O)c4ccccc4)c4ccccc4)C(C)=C1C3(C)C)[C@]1(OC(C)=O)CO[C@@H]1C[C@@H]2O [Pa, Paclitaxel] | 6.56 −log10M and 7.27 −log10M and 6.91 −log10M | 8.56 −log10M and 7.27 −log10M and 7.91 −log10M | 8.81 −log10M and 8.22 −log10M and 8.52 −log10M | 9.30 −log10M and 7.60 −log10M and 8.45 −log10M | 9.06 −log10M and 8.01 −log10M and 8.53 −log10M | 0.00316 µM | –
CN(C)C(=N)N=C(N)N [Metformin] | – | – | – | – | – | – | has anti-cancer activity
CC[C@@]1(O)C(=O)OCc2c1cc1n(c2=O)Cc2cc3c(CN(C)C)c(O)ccc3nc2-1 [To, topotecan] | 8.24 −log10M and 7.82 −log10M and 7.73 −log10M | 6.41 −log10M and 5.67 −log10M and 5.65 −log10M | 5.96 −log10M and 5.14 −log10M and 5.73 −log10M | 7.36 −log10M and 7.05 −log10M and 7.32 −log10M | 8.09 −log10M and 7.79 −log10M and 7.83 −log10M | 28.2 µM | –
